Structures can show the parent of a compound that is named as a salt. Bounds are passed on as bounds.

Turning to `c1ccc(OC[C@@H]2CC[C@H]3CN(c4ccncn4)CCN3C2)cc1` (racemic), the melting point is > 265 °C (dec.).
Consider `c1ccc(O[C@@H]2CC[C@H]3CN(c4ncccn4)CCN3C2)cc1` (racemic), for which the melting point lay within 147 to 148 °C.
As for `Fc1ccc(OC[C@@H]2CC[C@H]3CN(c4cccnn4)CCN3C2)cc1` (racemic) (as salt: sulfate) [Example 35, (7RS,9aSR)-7-(4-Fluorophenoxy)methyl-2-(pyridazin-3-yl)-2,3,4,6,7,8,9,9a-octahydro-1H-pyrido[1,2-a]pyrazine], the figure is 246 to 250 °C; as for `Fc1cnc(N2CCN3C[C@H](COc4ccccc4)CC[C@H]3C2)nc1` (racemic) [Example 5, (7RS,9aSR)-7-Phenoxymethyl-2-(5-fluoropyrimidin-2-yl)-2,3,4,6,7,8,9,9a-octahydro-1H-pyrido[1,2-a]pyrazine], 215 to 217 °C.
With `Fc1ccc(OC[C@@H]2CC[C@H]3CN(c4ncc(Cl)cc4Cl)CCN3C2)cc1` (racemic) [Example 15, (7RS,9aSR)-7-(4-Fluorophenoxy)methyl-2-(3,5-dichloropyridin-2-yl)-2,3,4,6,7,8,9,9a-octahydro-1H-pyrido[1,2-a]pyrazine] the figure was 247 to 248 °C; with `Clc1ccc(N2CCN3C[C@H](COc4ccccc4)CC[C@H]3C2)nc1` (racemic) [Example 17, (7RS,9aSR)-7-Phenoxymethyl-2-(5-chloropyridin-2-yl)-2,3,4,6,7,8,9,9a-octahydro-1H-pyrido[1,2-a]pyrazine], 218 to 224 °C; with `N#Cc1cc(F)ccc1N1CCN2C[C@H](COc3ccc(F)cc3)CC[C@H]2C1` (racemic) [Example 23, (7RS,9aSR)-7-(4-Fluorophenoxy)methyl-2-(2-cyano-4-fluorophenyl)-2,3,4,6,7,8,9,9a-octahydro-1H-pyrido[1,2-a]pyrazine], 235 to 240 °C.
With `Fc1ccc(OC[C@@H]2CC[C@H]3CN(c4ccc(F)cn4)CCN3C2)cc1` (racemic) [Example 28, (7RS,9aSR)-7-(4-Fluorophenoxy)methyl-2,3,4,6,7,8,9,9a-octahydro-2-(5-fluoropyridin-2-yl)-1H-pyrido[1,2-a]pyrazine] the figure was 214 to 215 °C; with `Clc1nccc(N2CCN3C[C@H](COc4ccccc4)CC[C@H]3C2)n1` (racemic) [Example 29, (7RS,9aSR)-7-Phenoxymethyl-2-(2-chloropyrimidin-4-yl)-2,3,4,6,7,8,9,9a-octahydro-1H-pyrido[1,2-a]pyrazine], 227 to 233 °C (dec.); with `c1ccc(OC[C@@H]2CC[C@H]3CN(c4cnccn4)CCN3C2)cc1` (racemic) [Example 30, (7RS,9aSR)-7-Phenoxymethyl-2-(pyrazin-2-yl)-2,3,4,6,7,8,9,9a-octahydro-1H-pyrido[1,2-a]pyrazine], 217 to 219 °C.
Regarding `Clc1cncc(N2CCN3C[C@H](COc4ccccc4)CC[C@H]3C2)n1` (racemic) [Example 31, (7RS,9aSR)-7-Phenoxymethyl-2-(6-chloropyrazin-2-yl)-2,3,4,6,7,8,9,9a-octahydro-1H-pyrido[1,2-a]pyrazine], the melting point is 247 °C (dec.).
With `Clc1ccc(N2CCN3C[C@H](COc4ccccc4)CC[C@H]3C2)nn1` (racemic) [Example 33, (7RS,9aSR)-7-Phenoxymethyl-2-(6-chloropyridazin-3-yl)-2,3,4,6,7,8,9,9a-octahydro-1H-pyrido[1,2-a]pyrazine] the figure was > 265 °C (dec.).
With `Fc1ccc2c(ccn2C[C@@H]2CC[C@H]3CN(c4ncccn4)CCN3C2)c1` (racemic) [Example 40, (7RS,9aSR)-7-(5-Fluoroindol-1-ylmethyl)-2-(pyrimidin-2-yl)-2,3,4,6,7,8,9,9a-octahydro-1H-pyrido[1,2-a]pyrazine] the figure was 70 to 72 °C.
Consider `CSc1nc(N2CCN3CC(COc4ccccc4)CCC3C2)ncc1F` (stereo not drawn) [Example 4, (7RS,9aSR)-7-Phenoxymethyl-2-(5-fluoro-4-thiomethylpyrimidin-2-yl)-2,3,4,6,7,8,9,9a-octahydro-1H-pyrido[1,2-a]pyrazine], for which the melting point is 192 to 198 °C.
With `CSc1nc(N2CCN3CC(COc4ccc(F)cc4)CCC3C2)ncc1F` (stereo not drawn) [Example 6, (7RS,9aSR)-7-(4-Fluorophenoxy)methyl-2-(5-fluoro-4-thiomethyl-pyrimidin-2-yl)-2,3,4,6,7,8,9,9a-octahydro-1H-pyrido[1,2-a]pyrazine] the figure was 201 to 210 °C; with `Fc1cnc(N2CCN3C[C@H](CCc4ccccc4)CC[C@H]3C2)nc1` [Example 12, (7R,9aS)-7-(2-Phenyl)ethyl-2-(5-fluoropyrimidin-2-yl)-2,3,4,6,7,8,9,9a-octahydro-1H-pyrido[1,2-a]pyrazine], 250 to 252 °C.
With `Fc1ccc(OC[C@@H]2CC[C@H]3CN(c4ccccn4)CCN3C2)cc1` [Example 18, (7R,9aS)-7-(4-Fluorophenoxy)methyl-2-(pyridin-2-yl)-2,3,4,6,7,8,9,9a-octahydro-1H-pyrido[1,2-a]pyrazine] the figure was 261 to 263 °C; with `Fc1ccc(OC[C@@H]2CC[C@H]3CN(c4ccc(Cl)nn4)CCN3C2)cc1` [Example 20, (7R,9aS)-7-(4-Fluorophenoxy)methyl-2-(6-chloropyridazin-3-yl)-2,3,4,6,7,8,9,9a-octahydro-1H-pyrido[1,2-a]pyrazine], 265 to 270 °C.
As for `Nc1cc(F)ccc1N1CCN2C[C@H](COc3ccc(F)cc3)CC[C@H]2C1` [Example 24, (7R,9aS)-7-(4-Fluorophenoxy)methyl-2-(2-amino-4-fluorophenyl)-2,3,4,6,7,8,9,9a-octahydro-1H-pyrido[1,2-a]pyrazine], the figure is 144 to 149 °C; as for `Fc1ccc(OC[C@@H]2CCC3CN(c4ccccc4)CCN3C2)cc1` (some centres unmarked) [Example 26], 247 to 252 °C; as for `COc1cccc(N2CCN3C[C@H](COc4ccc(F)cc4)CCC3C2)n1` (stereo partly drawn) [Example 27, (7RS,9aSR)-7-(4-Fluorophenoxy)methyl-2-(6-methoxypyridin-2-yl)-2,3,4,6,7,8,9,9a octahydro-1H-pyrido[1,2-a]pyrazine], 228 to 230 °C.
Turning to `O=c1oc2ccccc2n1C[C@@H]1CC[C@H]2CN(c3ccc(Cl)cn3)CCN2C1` [Example 39, 3-[(7R,9aS)-2-(5-Chloropyridin-2-yl)-2,3,4,6,7,8,9,9a-octahydro-1H-pyrido[1,2-a]-pyrazin-7-ylmethyl]-3H-benzoxazol-2-one], the melting point is 247 to 248 °C.
For the molecule `Fc1ccc(SC[C@@H]2CCC3CN(c4ncccn4)CCN3C2)cc1` (some centres unmarked) [Example 41], the melting point lay in the range of 99 to 101 °C.
With `O=S(=O)(C[C@@H]1CCC2CN(c3ncccn3)CCN2C1)c1ccc(F)cc1` (stereo partly drawn) [Example 42, (7RS,9aSR)-7-(4-Fluorophenylsulfonyl)methyl-2-(pyrmidin-2-yl)-2,3,4,6,7,8,9,9a-octahydro-1H-pyrido[1,2-a]pyrazine] the figure was 155 to 157 °C; with `Fc1cnc(N2CCN3C[C@H](Cn4ccc5cc(F)ccc54)CC[C@H]3C2)nc1` [Example 43, (7R,9aS)-7-(5-Fluoroindol-1-yl)methyl-2-(5-fluoropyrimidin-2-yl)-2,3,4,6,7,8,9,9a-octahydro-1H-pyrido[1,2-a]pyrazine], 180 to 182 °C; with `O=C1Cc2ccccc2N1C[C@@H]1CC[C@H]2CN(c3ncccn3)CCN2C1` [Example 44, 1-[(7R,9aS)-2-(Pyrimidin-2-yl)-2,3,4,6,7,8,9,9a-octahydro-1H-pyrido[1,2-a]pyrazin-7-ylmethyl]-1,3-dihydro-indol-2-one], 174 to 176 °C.

For the origin of these results see patent US7220753B2, “2,7-substituted octahydro-1H-pyrido[1,2-a]pyrazine derivatives as ligands for serotonin receptors” (Pfizer Inc., priority 1994, dated 2007).
